Test results from patent publication US9636356B2, “Nanoparticle compositions of antibacterial compounds and other uses thereof” (JAWAHARLAL NEHRU CENTRE FOR ADVANCED SCIENTIFIC RESEARCH, priority 2012, dated 2017).

Test system: vancomycin resistant E. faecium (VRE) (ATCC 51559)
Test: Antibacterial activity (MIC), modified micro-dilution broth
Type: cell-based, Vancomycin resistant Enterococcus faecium
Conditions: 24 h, read-out: MIC VRE
Protocol: E. coli is cultured in Luria Bertani broth (10 g of tryptone, 5 g of yeast extract, and 10 g of NaCl in 1000 mL of sterile distilled water (pH −7) while S. aureus, P. aeruginosa and MRSA are grown in Yeast-dextrose broth (1 g of beef extract, 2 g of yeast extract, 5 g of peptone and 5 g of NaCl in 1000 mL of sterile distilled water). For E. faecium and VRE, Brain Heart Infusion broth (BHI) is used. K. pneumoniae is grown in nutrient media (3 g of beef extract and 5 g of peptone in 1000 mL of sterile distilled water). For solid media 5% agar is used along with above mentioned composition. The bacterial samples are freeze dried and stored at −80° C. 5 μl of these stocks are added to 3 mL of the nutrient broth and the culture is grown for 6 h at 37° C. prior to the experiments.
Antibacterial activity is determined with the slight modifications of standardized protocols. Water-soluble Q-PIBMI derivatives are assayed in a modified micro-dilution broth format. […] Bacteria, to be tested, grown for 6 h in the suitable media containing ˜10^9 cfu/mL (determined by spread plating method), which is then diluted to 10^5 cfu/mL using nutrient media. […] MIC value is determined by taking the average of triplicate O.D. values for each concentration and plotting it against concentration using Origin Pro 8.0 software. […]

`CN[C@H](CC(C)C)C(=O)N[C@H]1C(=O)N[C@@H](CC(N)=O)C(=O)N[C@H]2C(=O)N[C@H]3C(=O)N[C@H](C(=O)N[C@H](C(=O)O)c4cc(O)cc(O)c4-c4cc3ccc4O)[C@H](O)c3ccc(c(Cl)c3)Oc3cc2cc(c3O[C@@H]2O[C@H](CO)[C@@H](O)[C@H](O)[C@H]2O[C@H]2C[C@](C)(N)[C@H](O)[C@H](C)O2)Oc2ccc(cc2Cl)[C@H]1O` [Vamcomycin] showed an MIC greater than 156 µg/mL.
